Experimental data reported in ChEMBL document CHEMBL3045418, “Design, synthesis and antidepressant activity evaluation 2-hydroxy-4,6-diisoprenyloxychalcone derivatives” (2013).

Key:
Assay type in all cases: functional
Conditions in all cases: route intraperitoneal
[1] = tested on: Mus musculus; experiment: Increase in yohombine-induced mortality in Kunming Mus musculus (mouse) at 30 mg/kg, ip administered for 1 hr prior to yohombine challenge measured after 24 hr (reference value: 20%)
[2] = tested on: Mus musculus; experiment: Antidepressant activity in Kunming Mus musculus (mouse) assessed as immobility time at 10 mg/kg, ip administered 30 min prior to testing measured after 2 to 6 min by forced swimming test (reference value: 116.7 +/- 12.3 secs)
[3] = tested on: Mus musculus; experiment: Antidepressant activity in Kunming Mus musculus (mouse) assessed as immobility time at 10 mg/kg, ip administered 30 min prior to testing measured after 2 to 6 min by tail suspension test (reference value: 130.5 +/- 9.6 secs)

Row | SMILES | mortality at 30 mg/kg [1] [%] | Time [2] [s] | Time [3] [s]
1 | CN(C)CCCN1c2ccccc2CCc2ccc(Cl)cc21 [CLOMIPRAMINE] | 80 | – | –
2 | CNCCC(Oc1ccc(C(F)(F)F)cc1)c1ccccc1 (stereo not drawn) [FLUOXETINE] | – | 68.6 | 75.6
